Laboratory results: patent US6861448B2, “NAD synthetase inhibitors and uses thereof” (priority 1998, dated 2005)
≈ marks a conversion by molar mass, not a printed value. Where a name gives a salt, the structure may show the parent alone. Read-outs that look alike come from different tables or passages of the source.

Legend:
Murine 3T3 cells = assay: Cytotoxicity in murine 3T3 cells (LDH release); assay type: cell-based; settings: at 100 μM, 20 hrs
Procedure: (§1) Prior to conducting the assay, cell number, serum concentration, and medium conditions were optimized. Then using the assay conditions as described below, cells were seeded on day 1 and allowed to adhere for at least 1 hour. […] The initial solubilization of the test articles was in 50:50 methanol:water (v/v). […] On day 1, compounds 1439 and 1364 required sonication before solubility was reached). The cells plus compound were incubated overnight at 37° C., under a 5% CO2/[…] atmosphere. On day 2, the cells in the positive control wells were lysed with 0.9% Triton X-100 for 45 minutes to establish maximum levels of LDH release. The plates were centrifuged at 250× g for 5 minutes, the supernatants transferred to a new assay plate, and the LDH was measured. The assay plates were read at OD 490 nm.

S. aureus (MCR) = assay: microbe, parasite or virus in culture; assay type: cell-based; settings: for MIC: Staphylococcus aureus, read-out: Minimal Inhibitory Concentration (MIC), S. aureus (MCR), multiple values = two or more tests; for Minimal Inhibitory Concentration (MIC), S. aureus (MCR): multiple values = two or more tests
[1] = test system: rabbit primary renal cells (RPRC); assay: Cytotoxicity in rabbit primary renal cells (annexin V / PI flow cytometry); assay type: cell-based; settings: 24 hr, mean ± SEM; for % CELLULAR NECROSIS (RPRC): at 300 μM; for % APOPTOSIS (RPRC): at peak effect (30 μM)
Procedure: Cytotoxicity in Rabbit Primary Renal Cells
Isolation of Proximal Tubules and Culture Conditions
Rabbit renal proximal tubules were isolated using the iron oxide perfusion method and grown in 35-mm tissue culture dishes under improved conditions. The cell culture medium was a 1:1 mixture of DMEM/Ham's F-12 (without D-glucose, phenol red, or sodium pyruvate) supplemented with 15 mM HEPES buffer, 2.5 mM L-gluatmine, 1 μM pyridoxine HCL, 15 mM sodium bicarbonate, and 6 mM lactate. Hydrocortisone (50 nM), selenium (5 ng/mL), human transferrin (5 μg/mL), bovine insulin (10 nM) and L-ascorbic acid-2-phosphate (50 μM) were added to fresh culture medium immediately prior to daily media change.
All numbered compounds were diluted in methanol and the final concentration of methanol in RPRC was less then 0.1% (v/v).
Measurement of RPRC Death
Cell death was monitored in RPRC by assessment of both annexin V and PI staining using flow cytometry. Briefly, RPRC were exposed to the indicated concentrations of compounds for 24 hr. Media was removed and RPRC washed twice with phosphate-buffered saline (PBS) and incubated in a binding buffer (10 mM HEPES, 140 mM NaCL, 5 mM KCL, 1 mM MgCl2, 1.8 mM CaCl2, pH=7.4) containing annexin V-FITC (1 μmol) and PI (25 μg/mL). After a 10 min incubation, RPRC were washed three times in the binding buffer and were released from the monolayers by gentle scrapping with a rubber policeman. Annexin V and PI staining were measured using a BectonDickson FacsCalibur flow cytometer (San Jose, Calif.). An equal number of cells (10,000) were counted for sample and apoptotic cells were defined as those that stained positive for annexin V-FITC only. RPRC undergoing necrotic cell death stained for PI only.
RPRC isolated from one rabbit represented one experiment (n=1). Data were analyzed and are reported as means±standard error of the mean of at least 3 separate experiments.

M. flavescens = assay: microbe, parasite or virus in culture; assay type: cell-based; settings: for MIC: Mycolicibacterium flavescens, read-out: Minimal Inhibitory Concentration (MIC), M. flavescens
[2] = Solubilization of test articles in methanol:water; assay type: physicochemical; settings: 50:50 methanol:water (v/v)
Procedure: as §1

E. coli = assay: MIC test (NCCLS broth dilution), growth inhibition; assay type: cell-based; settings: for MIC: Escherichia coli
Procedure: (§2) Antimicrobial Testing (P. aeruginosa, E. coli, B. subtilis, S. aureus, S. aureus (MCR), A. niger and M. flavescens.)
(§3) The test compounds were solubilized, diluted, and pipetted in duplicate into 10 mL sterile culture tubes and dried under vacuum.
(§4) Challenge organisms, specified were grown overnight at 37° C. in the appropriate medium (i.e., Mueller-Hinton Broth). These pure broth cultures were diluted 1:1,000 and 2.0 mL were added to the test compound tubes.
(§5) Appropriate media controls, challenge organism viability controls, and antibiotic control dilutions (i.e., ampicillin and nystatin), were prepared in the same manner as the test compounds and run against the challenge organisms.

P aeruginosa = assay: MIC test (NCCLS broth dilution), growth inhibition; assay type: cell-based; settings: for MIC: Pseudomonas aeruginosa, read-out: Potency to inhibit growth, P aeruginosa (MIC)
Procedure: as §2, §3, §4, §5

A. niger = assay: MIC test, fungal growth inhibition; assay type: cell-based; settings: for MIC: Aspergillus niger, read-out: Potency to inhibit growth, A. niger (MIC)
Procedure: as §2
(§6) The MIC test procedures conformed to the present protocol from the National Committee for Clinical Laboratory Standards (NCCLS), and were designed to provide basic antimicrobial data on compounds based on the MIC of the active component.
as §3, §4, §5

NAD synthetase = NAD synthetase (Bacillus subtilis, UniProt P08164); assay: NAD synthetase coupled enzyme assay; assay type: biochemical
From the text: This Example illustrates the NAD synthetase enzyme inhibiting activity of some compounds of the present invention. [drawing 48] The coupled assay—production of NAD was monitored through conversion to NADH by alcohol dehydrogenase. [NADH] was monitored by 2 parallel methods: the change in absorbance at 340 nm, and fluorescence at 460 nm (excitation 320 nm). […] Controls were included for determining inhibitor background, precipitation, and ADH inhibition.

B. subtilis = assay: microbe, parasite or virus in culture; assay type: cell-based; settings: multiple values = two or more tests
S. aureus = assay: microbe, parasite or virus in culture; assay type: cell-based; settings: multiple values = two or more tests; for MIC: Staphylococcus aureus, read-out: Minimal Inhibitory Concentration (MIC), S. aureus
C. albicans = assay: MIC test, fungal growth inhibition; assay type: cell-based; settings: in vitro; for MIC: Candida albicans, read-out: Potency to inhibit growth, C. albicans (MIC)
Procedure: as §6, §3, §4, §5

[3] = test system: Bacillus anthracis Sterne 34F2; assay: microbe, parasite or virus in culture; assay type: cell-based; settings: Bacillus anthracis
[4] = in vitro, read-out: Potency to inhibit growth, E. coli (MIC)
[5] = STERNE34F2, read-out: approximate MIC, B. anthracis (first value)
[6] = STERNE34F2, read-out: approximate MIC, B. anthracis (second value)

Sequence of NAD synthetase (P08164 whole entry): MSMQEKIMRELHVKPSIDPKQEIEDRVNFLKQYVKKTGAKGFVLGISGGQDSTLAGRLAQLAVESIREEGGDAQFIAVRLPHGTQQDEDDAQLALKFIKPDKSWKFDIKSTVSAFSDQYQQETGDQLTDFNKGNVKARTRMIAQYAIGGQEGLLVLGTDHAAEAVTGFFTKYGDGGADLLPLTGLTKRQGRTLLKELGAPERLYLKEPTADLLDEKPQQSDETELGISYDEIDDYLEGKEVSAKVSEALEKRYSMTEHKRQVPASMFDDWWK

Structure (SMILES)	% CELLULAR NECROSIS (FIBROBLASTS) (Murine 3T3 cells) [%]	MIC (S. aureus (MCR)) [µg/mL]	Minimal Inhibitory Concentration (MIC), S. aureus (MCR) (S. aureus (MCR)) [µg/mL]	% CELLULAR NECROSIS (RPRC) [1] [%]	% APOPTOSIS (RPRC) [1] [%]	MIC (M. flavescens) [µg/mL]	solubility of test article in methanol:water [2]	IC50 (NAD synthetase) [µM]	MIC (S. aureus) [µg/mL]	MIC (C. albicans) [µg/mL]	MIC (E. coli; [4]) [µg/mL]	MIC (P aeruginosa; in vitro) [µg/mL]	MIC (A. niger; in vitro) [µg/mL]	MIC [3, 5] [µg/mL]	MIC [3, 6] [µg/mL]	also measured
N=C(N)N[C@@H](Cc1ccccc1)C(=O)NCCCCCCCCOc1ccc(OCc2ccccc2)cc1 (as salt: trifluoroacetic acid salt) [Compound 1503]	–	–	–	–	–	–	–	–	–	–	–	–	–	–	–	melting point: 108 to 113 °C
C[N+](C)(C)C(Cc1ccccc1)C(=O)NCCCCCCCCOc1ccc(OCc2ccccc2)cc1 (centres unmarked) [Compound 1364]	62	< 0.78	<1.56	63 ± 2	15 ± 3	> 50	went into solution on day 1, but precipitated on day 2	48.4	–	–	–	–	–	–	–	MIC (E. coli; read-out: Potency to inhibit growth, E. coli (MIC), in vitro): < 50 µg/mL; MIC (P aeruginosa): > 50 µg/mL; MIC (A. niger): > 50 µg/mL
C[N+](C)(C)[C@H](COCCCCCCCCOc1ccc(OCc2ccccc2)cc1)Cc1ccccc1 [Compound 1439]	73	< 1.56	–	62 ± 2	10 ± 1	< 12.5	never went into solution at 50% organic	22.7	< 0.78	< 3.13	< 12.5	> 50	< 25	4	4	MIC (B. subtilis; Bacillus subtilis, read-out: Minimal Inhibitory Concentration (MIC), B. subtilis): < 0.39 µg/mL
C[N+](C)(C)[C@@H](Cc1ccccc1)C(=O)NCCCCCCCCOc1ccc2c(c1)C(=O)CC(c1ccccc1)O2.[I-] (some centres unmarked) [Compound 1450]	–	–	<3.13	–	–	–	–	–	–	–	–	–	–	–	–	Minimal Inhibitory Concentration (MIC), B. subtilis (B. subtilis): <3.13 µg/mL; Minimal Inhibitory Concentration (MIC), S. aureus (S. aureus): <3.13 µg/mL; Minimal Inhibitory Concentration (MIC), M. flavescens (M. flavescens): <3.13 µg/mL; Potency to inhibit growth, C. albicans (MIC) (C. albicans): <6.25 µg/mL; Potency to inhibit growth, E. coli (MIC) (E. coli; in vitro): >50 µg/mL; Potency to inhibit growth, P aeruginosa (MIC) (P aeruginosa; in vitro): >50 µg/mL; Potency to inhibit growth, A. niger (MIC) (A. niger; in vitro): >50 µg/mL; IC50 (NAD synthetase; NAD synthetase 2.0 μg/mL, 0.1 mM NaAD, 0.2 mM ATP, pH 8.5): 31.7 µM
N=C(N)N[C@@H](Cc1ccccc1)C(=O)NCCCCCCCCOc1ccc(OCc2ccccc2)cc1 [Compound 1503]	–	< 0.78	<1.56	–	–	> 50	–	12.7	< 0.78	> 50	> 50	> 50	> 50	8 (≈ 15.5 µM)	16 (≈ 31 µM)	–
